Test system: 855422-203-R-J1-PDC spheroids with HUVEC/MSC, viability
Test: Anticancer human tumor 855422-203-R-J1-PDC patient-derived bladder carcinoma cell line growth inhibition [PI3K]
Conditions: for viability, T/C: stronger effect = lower value
Text: Combinatorial screen of targeted agents with the PI3K inhibitors inavolisib, alpelisib, duvelisib, and copanlisib in multi-cell type tumor spheroids
A high-throughput screen of multi-cell type tumor spheroids was designed to identify active combinations of targeted small molecules and PI3K pathway inhibitors. Complex spheroids include a stromal component modeled by human endothelial cells (HUVEC) and fibroblasts modeled by human mesenchymal stem cells (MSCs). The concentration ranges selected for each drug and investigational agent were based upon clinically achievable concentrations if the clinical Cmax of the agent was known.
Compounds. The drugs and investigational agents: inavolisib (NSC800729), alpelisib (NSC765974), duvelisib (NSC772469), copanlisib (NSC816437), ipatasertib (NSC767898), afuresertib (NSC778305), talazoparib (NSC767125), sapanisertib (NSC764658), selumetinib (NSC741078), tovorafenib (DAY101, NSC766906), vemurafenib (NSC761431), ravoxertinib (NSC781343), sotorasib (NSC818433), MRTX1133 (NSC 836407), abemaciclib (NSC 768073), palbociclib (NSC758247), venetoclax (NSC 766270), SY5609 (NSC837396), enzalutamide (NSC755605), and darolutamide (NSC825331), were obtained from the National Cancer Institute (NCI) Developmental Therapeutics Program Chemical Repository. The FDA-approved anticancer drug set is available from the NCI Developmental Therapeutics Program. […] The stock solutions were prepared in dimethyl sulfoxide (DMSO, Sigma-Aldrich, St. Louis, MO, cat. D2650) at 800-fold the tested concentration and stored at -70 degrees C prior to their use. All drugs and investigational agents were tested over a range starting from a high concentration at or near the clinical Cmax and decreasing in half-log increments. If the clinical Cmax for an agent had not been determined, the highest concentration tested was 10 microM.
Cell Culture. All cells were maintained in an incubator at 37 degrees C and 5% CO2 with 95% humidity. The PDC lines were cultured according to standard operating procedures established by the NCI PDMR (https://pdmr.cancer.gov/sops/default.htm). All PDCs were thawed and cultured in Matrigel-coated flasks prepared with a working solution of 1X Ham's F-12 nutrient mix, without supplementation (Invitrogen, Waltham, MA, cat. 11765054), 100 U/mL penicillin-streptomycin (Invitrogen, cat. 15140122), and 2.5% Matrigel (Corning Inc., Corning, NY, cat. 354248) for the first three passages. The 354836-022-R-J1-PDC, 475296-252-R-J1-PDC, and 997726-040-R-J2-PDC lines were cultured in 6A media, which includes advanced DMEM/F-12 (Thermo Fisher Scientific, cat. 12634028), 10 mM HEPES (Thermo Fisher Scientific, cat. 15630080), 1X GlutaMAX supplement (Thermo Fisher Scientific, cat. 35050061), 0.1 mg/mL primocin (InvivoGen, San Diego, CA, cat. ant-pm-2), 10% defined fetal bovine serum, heat inactivated (HyClone Laboratories Inc., Logan, UT, cat. SH30070.03HI), 50% L-WRN conditioned media (ATCC, cat. CRL-3276), 1.25 mM N-Acetyl-L-cysteine (Sigma-Aldrich, cat. A9165), 10 mM nicotinamide (Sigma-Aldrich, cat. N0636), 1X B-27 supplement (Thermo Fisher Scientific, cat. 17504044), 1X N-2 supplement (Thermo Fisher Scientific, cat. 17502048), and 10 microM Y-27632 dihydrochloride (Tocris Bioscience, Bristol, United Kingdom, cat. 1254). The 624824-186-R-J2-PDC line was cultured in 6C/Colon 1B media, which includes all 6A media components plus 50 ng/mL human EGF recombinant protein (Thermo Fisher Scientific, cat. PHG0311). […]

[1] = curve of first compound, second compound 0.0316 µM
[2] = curve of first compound, second compound 0.1 µM
[3] = curve of first compound, second compound 0.316 µM
[4] = curve of first compound, second compound 1 µM
[5] = second compound 0.0316 µM, first compound 0.0316 µM
[6] = second compound 0.0316 µM, first compound 0.1 µM
[7] = second compound 0.0316 µM, first compound 0.316 µM
[8] = second compound 0.0316 µM, first compound 1 µM
[9] = second compound 0.0316 µM, first compound 3.16 µM
[10] = second compound 0.0316 µM, first compound 10 µM
[11] = second compound 0.1 µM, first compound 0.0316 µM
[12] = second compound 0.1 µM, first compound 0.1 µM
[13] = second compound 0.1 µM, first compound 0.316 µM
[14] = second compound 0.1 µM, first compound 1 µM
[15] = second compound 0.1 µM, first compound 3.16 µM
[16] = second compound 0.1 µM, first compound 10 µM
[17] = second compound 0.316 µM, first compound 0.0316 µM
[18] = second compound 0.316 µM, first compound 0.1 µM
[19] = second compound 0.316 µM, first compound 0.316 µM
[20] = second compound 0.316 µM, first compound 1 µM
[21] = second compound 0.316 µM, first compound 3.16 µM
[22] = second compound 0.316 µM, first compound 10 µM
[23] = second compound 1 µM, first compound 0.0316 µM
[24] = second compound 1 µM, first compound 0.1 µM
[25] = second compound 1 µM, first compound 0.316 µM
[26] = second compound 1 µM, first compound 1 µM
[27] = second compound 1 µM, first compound 3.16 µM
[28] = second compound 1 µM, first compound 10 µM
[29] = curve of first compound, second compound 3.16 µM
[30] = curve of first compound, second compound 10 µM
[31] = second compound 3.16 µM, first compound 0.0316 µM
[32] = second compound 3.16 µM, first compound 0.1 µM
[33] = second compound 3.16 µM, first compound 0.316 µM
[34] = second compound 3.16 µM, first compound 1 µM
[35] = second compound 3.16 µM, first compound 3.16 µM
[36] = second compound 3.16 µM, first compound 10 µM
[37] = second compound 10 µM, first compound 0.0316 µM
[38] = second compound 10 µM, first compound 0.1 µM
[39] = second compound 10 µM, first compound 0.316 µM
[40] = second compound 10 µM, first compound 1 µM
[41] = second compound 10 µM, first compound 3.16 µM
[42] = second compound 10 µM, first compound 10 µM
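Further: agents incubated with spheroids for one week before read-out.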
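Wherever viability, T/C is given: 100% = DMSO vehicle-treated control wells.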

CC1(C)CCC(Nc2ncc(C(F)(F)F)c(-c3c[nH]c4c(P(C)(C)=O)c(C#N)ccc34)n2)CN1 (stereo not drawn)
viability, T/C (compound 0.0316 µM): 29.6% [middle of 4 runs] | viability, T/C (compound 0.1 µM): 25% [middle of 4 runs] | viability, T/C (compound 0.316 µM): 27.7% [middle of 4 runs] | viability, T/C (compound 1 µM): 30.7% [middle of 4 runs] | viability, T/C (compound 3.16 µM): 28.9% [middle of 4 runs] | viability, T/C (compound 10 µM): 5.48% [middle of 4 runs] | IC50 (curve of compound): < 0.0316 µM

CC1(C)CCC(CN2CCN(c3ccc(C(=O)NS(=O)(=O)c4ccc(NCC5CCOCC5)c([N+](=O)[O-])c4)c(Oc4cnc5[nH]ccc5c4)c3)CC2)=C(c2ccc(Cl)cc2)C1 + COc1c(OCCCN2CCOCC2)ccc2c3n(c(=NC(=O)c4cnc(N)nc4)nc12)CCN3
IC50 (curve of first compound, second compound 0.00316 µM): 5.28 µM | IC50 (curve of first compound, second compound 0.01 µM): 5.04 µM | IC50 [1]: 4.6 µM | IC50 [2]: < 0.0316 µM | IC50 [3]: < 0.0316 µM | IC50 [4]: < 0.0316 µM | viability, T/C (second compound 0.00316 µM, first compound 0.0316 µM): 98.5% | viability, T/C (second compound 0.00316 µM, first compound 0.1 µM): 80.8% | viability, T/C (second compound 0.00316 µM, first compound 0.316 µM): 99.5% | viability, T/C (second compound 0.00316 µM, first compound 1 µM): 87.2% | viability, T/C (second compound 0.00316 µM, first compound 3.16 µM): 88.1% | viability, T/C (second compound 0.00316 µM, first compound 10 µM): 2.53% | viability, T/C (second compound 0.01 µM, first compound 0.0316 µM): 91% | viability, T/C (second compound 0.01 µM, first compound 0.1 µM): 77.5% | viability, T/C (second compound 0.01 µM, first compound 0.316 µM): 78.3% | viability, T/C (second compound 0.01 µM, first compound 1 µM): 76.4% | viability, T/C (second compound 0.01 µM, first compound 3.16 µM): 90.8% | viability, T/C (second compound 0.01 µM, first compound 10 µM): 1.94% | viability, T/C [5]: 62.5% | viability, T/C [6]: 65.3% | viability, T/C [7]: 73.7% | viability, T/C [8]: 78.2% | viability, T/C [9]: 87.3% | viability, T/C [10]: 1.43% | viability, T/C [11]: 29.7% | viability, T/C [12]: 30.3% | viability, T/C [13]: 30.6% | viability, T/C [14]: 33.5% | viability, T/C [15]: 31.8% | viability, T/C [16]: 1.14% | viability, T/C [17]: 12.1% | viability, T/C [18]: 9.95% | viability, T/C [19]: 12.7% | viability, T/C [20]: 9.33% | viability, T/C [21]: 9.24% | viability, T/C [22]: 0.68% | viability, T/C [23]: 3.97% | viability, T/C [24]: 5.15% | viability, T/C [25]: 4.27% | viability, T/C [26]: 5.32% | viability, T/C [27]: 4.63% | viability, T/C [28]: 1.04%

CC1(C)CCC(CN2CCN(c3ccc(C(=O)NS(=O)(=O)c4ccc(NCC5CCOCC5)c([N+](=O)[O-])c4)c(Oc4cnc5[nH]ccc5c4)c3)CC2)=C(c2ccc(Cl)cc2)C1 + Cc1nc(NC(=O)N2CCCC2C(N)=O)sc1-c1ccnc(C(C)(C)C(F)(F)F)c1
IC50 [1]: 4.57 µM | IC50 [2]: 4.94 µM | IC50 [3]: 5.26 µM | IC50 [4]: 4.58 µM | IC50 [29]: < 0.0316 µM | IC50 [30]: < 0.0316 µM | viability, T/C [5]: 105% | viability, T/C [6]: 89.9% | viability, T/C [7]: 112% | viability, T/C [8]: 100% | viability, T/C [9]: 72.8% | viability, T/C [10]: 1.55% | viability, T/C [11]: 99.8% | viability, T/C [12]: 87.4% | viability, T/C [13]: 101% | viability, T/C [14]: 102% | viability, T/C [15]: 80.6% | viability, T/C [16]: 1.52% | viability, T/C [17]: 89.8% | viability, T/C [18]: 91.8% | viability, T/C [19]: 95.3% | viability, T/C [20]: 92.1% | viability, T/C [21]: 88.6% | viability, T/C [22]: 1.39% | viability, T/C [23]: 76.8% | viability, T/C [24]: 77% | viability, T/C [25]: 69.5% | viability, T/C [26]: 81% | viability, T/C [27]: 73.3% | viability, T/C [28]: 0.91% | viability, T/C [31]: 47.7% | viability, T/C [32]: 45.5% | viability, T/C [33]: 42.7% | viability, T/C [34]: 49% | viability, T/C [35]: 47% | viability, T/C [36]: 0.59% | viability, T/C [37]: 25.8% | viability, T/C [38]: 23.5% | viability, T/C [39]: 25.7% | viability, T/C [40]: 29.4% | viability, T/C [41]: 24.7% | viability, T/C [42]: 0.6%

CCCS(=O)(=O)Nc1ccc(F)c(C(=O)c2c[nH]c3ncc(-c4ccc(Cl)cc4)cc23)c1F + Cc1nc(NC(=O)N2CCCC2C(N)=O)sc1-c1ccnc(C(C)(C)C(F)(F)F)c1
IC50 [1]: 3.91 µM | IC50 [2]: 3.9 µM | IC50 [3]: 4.42 µM | IC50 [4]: 3.53 µM | IC50 [29]: < 0.0316 µM | IC50 [30]: < 0.0316 µM | viability, T/C [5]: 97.7% | viability, T/C [6]: 89.5% | viability, T/C [7]: 109% | viability, T/C [8]: 82.5% | viability, T/C [9]: 62.3% | viability, T/C [10]: 0.1% | viability, T/C [11]: 88.2% | viability, T/C [12]: 90.2% | viability, T/C [13]: 100% | viability, T/C [14]: 90.7% | viability, T/C [15]: 61.1% | viability, T/C [16]: 0.16% | viability, T/C [17]: 86.4% | viability, T/C [18]: 87.4% | viability, T/C [19]: 99.1% | viability, T/C [20]: 85.3% | viability, T/C [21]: 70.8% | viability, T/C [22]: 0.13% | viability, T/C [23]: 71.4% | viability, T/C [24]: 74% | viability, T/C [25]: 68.9% | viability, T/C [26]: 72.8% | viability, T/C [27]: 53.6% | viability, T/C [28]: 0.11% | viability, T/C [31]: 45.3% | viability, T/C [32]: 46.2% | viability, T/C [33]: 38.4% | viability, T/C [34]: 44% | viability, T/C [35]: 25.9% | viability, T/C [36]: 0.29% | viability, T/C [37]: 25.3% | viability, T/C [38]: 17.9% | viability, T/C [39]: 23.2% | viability, T/C [40]: 23.5% | viability, T/C [41]: 13.6% | viability, T/C [42]: 0.19%

From PubChem BioAssay AID1963967 (Molecular Pharmacology Branch, DTP, NCI, 2024)
